Results taken from patent US5753675A, “Quinoline analogs of mevalonolactone and derivatives thereof” (Novartis Pharmaceuticals Corporation, priority 1990, dated 1998).
Read-outs that look alike come from different tables or passages of the source.

Tests used:
[1] = tested on: 3β-hydroxysterol synthesis (cholesterol biosynthesis); test: Test B. In Vivo Cholesterol Biosynthesis Inhibition Test; settings: Rattus norvegicus, ip, 1 h, read-out: ED50 (inhibition of 3β-hydroxysterol synthesis)
Experimental: Test B. In Vivo Cholesterol Biosynthesis Inhibition Test: In vivo studies utilize male Wistar Royal Hart rats weighing 150±20 g. which have been kept for 7-10 days on an altered light cycle (6:30 A.M.-6:30 P.M. dark) housed two per cage and fed powdered Purina Rat Chow and water ad libitum. Three hours before the diurnal maximum of cholesterol synthesis at mid-dark, the rats are administered the test substance (e.g., 0.01-20 mg./kg. body weight) dissolved or as a suspension in 0.5% carboxymethyl-cellulose in a volume of 1 ml./100 g. body weight. Controls receive vehicle alone. One hour after receiving the test substance, the rats are injected intraperitoneally with about 25 μCi/100 g. body weight of sodium [1-^14 C]acetate 1-3 mCi/mmol. Two hours after mid-dark, blood samples are obtained under sodium hexobarbital anesthesia, and the serum is separated by centrifugation. […] The [^14 C]digitonides are then counted by liquid scintillation spectrometry. […] Inhibition of 3β-hydroxysterol synthesis is calculated from the reduction in the nCi of 3β-hydroxysterols formed from test groups compared to controls.

[2] = target: T1, HMG-CoA reductase (Rattus norvegicus, UniProt P51639); test: Test A. In Vitro Microsomal Assay of HMG-CoA Reductase Inhibition; assay type: biochemical; settings: rat liver microsomal suspensions, [14C]HMG-CoA substrate; test concentrations 0.05-1000 μmolar; read-out: IC50 (concentration calculated to produce a 50% inhibition of HMG-CoA reductase activity)
T1 construct: rat liver microsomal suspensions, freshly prepared from male Sprague-Dawley rats; from tissue; host or cells: rat liver microsomes (male Sprague-Dawley, 150-225 g)
T1 sequence (P51639 1-887): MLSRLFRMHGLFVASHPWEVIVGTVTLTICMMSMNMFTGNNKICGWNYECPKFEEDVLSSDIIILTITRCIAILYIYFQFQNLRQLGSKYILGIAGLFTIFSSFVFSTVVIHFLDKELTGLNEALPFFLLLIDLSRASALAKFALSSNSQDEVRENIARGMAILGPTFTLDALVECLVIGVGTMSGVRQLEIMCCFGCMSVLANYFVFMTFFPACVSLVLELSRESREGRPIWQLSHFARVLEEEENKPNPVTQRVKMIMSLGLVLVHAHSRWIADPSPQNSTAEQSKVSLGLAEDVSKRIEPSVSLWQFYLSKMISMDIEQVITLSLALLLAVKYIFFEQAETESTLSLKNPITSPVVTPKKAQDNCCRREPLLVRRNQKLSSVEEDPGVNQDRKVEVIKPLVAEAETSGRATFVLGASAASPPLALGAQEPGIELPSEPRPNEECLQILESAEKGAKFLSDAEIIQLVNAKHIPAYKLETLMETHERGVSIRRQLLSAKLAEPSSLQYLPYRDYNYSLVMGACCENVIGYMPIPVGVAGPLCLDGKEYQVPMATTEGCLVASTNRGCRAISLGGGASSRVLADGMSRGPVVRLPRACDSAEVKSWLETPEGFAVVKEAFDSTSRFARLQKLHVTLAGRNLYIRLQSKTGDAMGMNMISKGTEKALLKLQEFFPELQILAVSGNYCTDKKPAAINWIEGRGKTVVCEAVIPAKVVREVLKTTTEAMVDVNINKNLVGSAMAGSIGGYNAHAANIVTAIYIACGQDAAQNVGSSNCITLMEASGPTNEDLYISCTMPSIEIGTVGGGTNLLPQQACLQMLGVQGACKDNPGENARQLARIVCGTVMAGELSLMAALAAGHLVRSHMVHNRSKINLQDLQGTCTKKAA
Experimental: Test A. In Vitro Microsomal Assay of HMG-CoA Reductase Inhibition:
200 μl. aliquots (1.08-1.50 mg./ml.) of rat liver microsomal suspensions, freshly prepared from male Sprague-Dawley rats (150-225 g. body weight), in Buffer A with 10 mmol. dithiothreitol are incubated with 10 μl. of a solution of the test substance in dimethylacetamide and assayed for HMG-CoA reductase activity as described in Ackerman et al., J. Lipid Res. 18, 408-413 (1977). In the assay the microsomes are the source of the HMG-CoA reductase enzyme which catalyzes the reduction of HMG-CoA to mevalonate. The assay employs a chloroform extraction or a Dowex® 1X8 (200-400 mesh, formate form) ion exchange column to separate the product, [^14 C]mevalonolactone, formed by the HMG-CoA reductase reduction of the substrate, [^14 C]HMG-CoA. [^3 H]mevalonolactone is added as an internal reference. Inhibition of HMG-CoA reductase is calculated from the decrease in specific activity ([^14 C/^3 H]mevalonate) of test groups compared to controls.
IC50 is the concentration of the test substance in the assay system calculated to produce a 50% inhibition of HMG-CoA reductase activity. The tests are run at concentrations of test substance between 0.05 and 1000 μmolar.

[3] = male Wistar Royal Hart rats, in 0.5% carboxymethyl-cellulose, sodium [1-14C]acetate i.p. one hour after test substance, serum

With CCOC(=O)C[C@H](O)C[C@H](O)/C=C/c1c(C(C)C)nc2ccccc2c1-c1ccc(F)cc1 (relative stereo) [Example 3C] the ED50 [1, 3] was 0.49 mg/kg and the IC50 [2] was 410 nM.

CC[C@H](C)C(=O)O[C@H]1CCC=C2C=C[C@H](C)[C@H](CC[C@@H]3C[C@@H](O)CC(=O)O3)[C@H]21 [Compactin, reference compound] showed an ED50 [1, 3] of 3.5 mg/kg.

In the case of CC(C)c1nc2ccccc2c(-c2ccc(F)cc2)c1/C=C/C(O)CC(O)CC(=O)O (stereo not drawn) [Example 4], the ED50 [1, 3] is reported as > 1 mg/kg and the IC50 [2] is reported as 530 nM.

Work on CC[C@H](C)C(=O)O[C@H]1C[C@@H](C)C=C2C=C[C@H](C)[C@H](CC[C@@H]3C[C@@H](O)CC(=O)O3)[C@H]21 [Mevinolin, reference compound] yielded an ED50 [1] of 0.41 mg/kg.
